These results are taken from US20240156083A1, “CRYOBIOPRINTING FOR TISSUE FABRICATION AND STORAGE” (THE BRIGHAM AND WOMEN'S HOSPITAL, INC., priority 2022, published 2024).

For data set [1], the system named is C2C12 cells. The data set can be described thus: Live/Dead viability in vertically cryobioprinted GelMA constructs. It counts as cell-based, mouse. The following applies: 7.5% GelMA. An excerpt:
The C2C12 myoblast-laden cryobioprinted samples containing DMSO and melezitose were subjected to Live/Dead assays on Days 1, 3, and 7. The 7.5% GelMA bioinks containing different concentrations (5%, 10%, and 15%) of DMSO were initially used to gain understanding on its cryoprotectant effect. The optimum concentration of DMSO was found at 10% for maximizing cell viability in the absence of the saccharide. GelMA bioinks containing different concentrations (4%, 8%, and 12%) of melezitose in the absence of DMSO were separately used for optimizing the melezitose effect. […] Therefore, the GelMA bioink combined with 8% melezitose and 10% DMSO was determined as the optimum formulation for cell-laden vertical cryobioprinting, and used in the following cellular experiments. […]
Cell viability was assessed by staining with calcein-AM at 0.5 μL mL^−1 and ethidium homodimer-1 at 2 μL mL^−1 (Thermo Fisher Scientific). Cell viability imaging was done using an inverted Eclipse-Ti fluorescence microscope (Nikon). Cell viability was quantified by counting live and dead cells using the ImageJ software (National Institutes of Health). After loading the image, we would adjust the threshold to highlight all of the cells that need to be counted, and convert the image to a binary image. The number of live cells was then determined in the image. […]

Data set [2] can be described thus: Splat ice recrystallization-inhibition assay. The following applies: GelMA, Tp −20° C., 30 min, increasing DMSO concentration. It counts as physicochemical. On the procedure:
To further confirm the effect of CPAs on inhibiting ice-recrystallization, a modified splat assay was employed. […] Smaller crystal size is an indication of enhanced ice recrystallization-inhibition (Tomczak MM, et al., Biochem. Biophys. Res. Commun 311, 1041-1046).
The splat cooling assay was performed following the previously developed protocols (Georgiou PG, et al., J. Am. Chem. Soc 143, 7449-7461). Briefly, 10 μL of samples with different DMSO concentrations was added between two glass coverslips. The coverslips were placed on the freezing plate (Tp=−20° C.) for 30 min. Images were then obtained using an optical microscope (Nikon) and processed by ImageJ (National Institutes of Health) to determine the ice crystal size in each group.

The test system of data set [3] is C2C12 cells. The data set can be described thus: Live/dead cell viability after 72 h cryopreservation in GelMA with DMSO and saccharides. It counts as cell-based, mouse. To be noted: C2C12 in 5% (w/v) GelMA; for most effective saccharide concentration for cell viability increase: 72 h cryopreservation, normalized to control with same DMSO concentration. The protocol:
A series of cell viability experiments were conducted using different concentrations of DMSO and saccharides to find the optimized configuration of CPAs in GelMA. […] The cell-laden bioink was used to produce samples containing different concentrations of DMSO and saccharides at room temperature (RT). The cast samples were then directly transferred to −80° C. for 24 h, conventionally cryopreserved in liquid nitrogen for 72 h, crosslinked via UV exposure, and underwent live/dead assays. […] By using the fluorescence images, the cell viability ratios of C2C12 cells were determined. […] Cell viability of each group was normalized to the control group with the same DMSO concentration to choose the most functional saccharide and its optimum concentration (FIG. 3, B to D). […] Ninety-six groups of GelMA samples (four DMSO concentrations, four saccharide concentrations, and six types of saccharides) were studied to identify the optimal CPA configuration. C2C12 cells were encapsulated in the GelMA/CPAs precursor. A volume of 50 μL of the cell-laden precursor was directly cast on a freezing plate in aseptic conditions. […] On day 3, the samples were removed from cryogenic storage and directly crosslinked via UV exposure. The samples were washed in PBS to remove any excess CPAs in preparation for subsequent use. Cell viability was quantified within unthawed cell-encapsulated samples to identify the optimal combination of CPAs. Following the crosslinking and washing steps, the hydrogel samples were cultured for a definite period and then stained using calcein-AM and ethidium homodimer-1 (Thermo Fisher Scientific) per the provider's protocol. An inverted Eclipse-Ti fluorescence microscope (Nikon) was employed to image the live and dead cells in green and red channels, respectively. The ratio of live cells to the total captured cells in random regions of the samples was determined through processing the fluorescent images using ImageJ.

Data set [4] can be described thus: Ice crystal-formation imaging, fractal dimension (FD) analysis. It counts as physicochemical. To be noted: GelMA bioink, 90% of field of view frozen, versus DMSO-free control. The text has this: One critical factor that affects cell viability during cryopreservation is the formation of ice crystals (Cheng Y, et al., Small 15, 1904290). The spicular ice crystals can damage the cell membrane, resulting in lower cell viability. […] The addition of CPAs noticeably affected the shape of ice crystals. In the control sample (without DMSO), the ice crystals were more spicular and formed faster than the other study groups. Increasing the DMSO concentration led to the formation of fine ice crystals; however, no remarkable improvement in ice-crystallization was observed when the saccharide concentration was increased, as the saccharide merely prevents osmotic damage to the cells. The fractal dimension (FD) theory, in conjunction with an image processing method, was employed to quantitatively compare the smoothness and the growth rate of the ice crystals. The FD value quantifies the geometry's irregularities. In our analysis, ice crystals' boundaries were extracted from the brightfield images and digitized. The FD value for the resulting quasi-circle geometry was then calculated using equation (1) (Chen Y, Math. Probl. Eng 2020, 7528703).
, where P and A stand for the perimeter and the area of the quasi-circle geometry, respectively. FD is an indicator of how the quasi-circle geometry deviates from a circle. […] When 90% of the field of view was frozen, the FD values were recorded and compared. […]

The conditions of data set [5]: cited from earlier work.
For data set [6] the following is noted: previously reported (Tada N, et al.); cited from earlier work.

Each structure is given as a SMILES string.

As to `C[S+](C)[O-]` [DMSO, Dimethylsulfoxide], in data set [1] (absence of the saccharide), the “optimum concentration of DMSO for maximizing cell viability” value came to 10%. The “average size of the ice crystals” value in data set [2] is given as “significantly decreased”. The “optimum concentration of DMSO” value in data set [3] (for the selected sugar types, versus DMSO-free group) was 10 % (v/v). In addition, the “FD value of ice crystals” value in data set [4] was “significantly decreased”.

On to `OC[C@H]1O[C@@H](O[C@H]2[C@H](O)[C@@H](O)C(O)O[C@@H]2CO)[C@H](O)[C@@H](O)[C@H]1O` (stereo partly drawn) [Lactose, D-lactose], for which, in data set [3], the “most effective saccharide concentration for cell viability increase” value is listed as 4 % (w/v).

Consider `OC[C@H]1O[C@@](CO)(O[C@H]2O[C@H](CO)[C@@H](O)[C@H](O)[C@H]2O)[C@@H](O[C@H]2O[C@H](CO)[C@@H](O)[C@H](O)[C@H]2O)[C@@H]1O` [Melezitose, D-(+)-melezitose hydrate], for which the “melezitose concentration leading to highest cell viability” value in data set [1] (absence of DMSO) was 8%. Also, in data set [5], the “Solubility at 20° C.” value was 781 mg/mL. In addition, in data set [3], the “most effective saccharide concentration for cell viability increase” value is listed as 12 % (w/v).

Turning to `OC[C@H]1O[C@H](OC[C@H]2O[C@H](O[C@]3(CO)O[C@H](CO)[C@@H](O)[C@@H]3O)[C@H](O)[C@@H](O)[C@@H]2O)[C@H](O)[C@@H](O)[C@H]1O` [Raffinose, D-(+) raffinose pentahydrate], the “concentration effective as CPA” value in data set [6] is on record as 10-18 % (w/v). For the same compound, in data set [3], the “most effective saccharide concentration for cell viability increase” value is recorded as 4 % (w/v).

What is called Solubility is how much of the substance goes into solution per volume.
